The test system of series [1] is liver gene expression profile; lipid metabolism genes. Briefly: Microarray and real-time PCR analysis of liver gene expression in lean versus high-fat fed mice (Example 65). It counts as in vivo, mouse. Particulars: high fat fed C57Bl/6 mice. As for the experimental part:
Male C57Bl/6 mice were divided into the following groups, consisting of 5 animals each: (1) mice on a lean diet, injected with saline (lean control); (2) mice on a high fat diet; (3) mice on a high fat diet injected with 50 mg/kg of the control oligonucleotide 141923 (SEQ ID NO: 858); (4) mice on a high fat diet given 20 mg/kg atorvastatin calcium (Lipitor®, Pfizer Inc.); (5) mice on a high fat diet injected with 10, 25 or 50 mg/kg ISIS 147764 (SEQ ID NO: 109). Saline and oligonucleotide treatments were administered intraperitoneally twice weekly for 6 weeks. Atorvastatin was administered daily for 6 weeks. At study termination, liver samples were isolated from each animal and RNA was isolated for Northern blot qualitative assessment, DNA microarray and quantitative real-time PCR. Northern blot assessment and quantitative real-time PCR were performed as described by other examples herein.
For DNA microarray analysis, hybridization samples were prepared from 10 μg of total RNA isolated from each mouse liver according to the Affymetrix Expression Analysis Technical Manual (Affymetrix, Inc., Santa Clara, Calif.). […] Signal values for each probe set were calculated using the Affymetrix Microarray Suite v5.0 software (Affymetrix, Inc., Santa Clara, Calif.). […]

Series [2] relates to human apolipoprotein B protein (apolipoprotein B-100 and apolipoprotein B-48). Briefly: Transgenic mice dosing study (Example 52): immunoblot of human apolipoprotein B protein in serum and liver. In kind it is in vivo, human transgene in mouse. As for the experimental part: Apolipoprotein B protein in serum was also assessed by immunoblot analysis using an antibody directed to human apolipoprotein B protein (US Biologicals, Swampscott, Mass.).
A general note: A western blot detects proteins with antibodies after separation by electrophoresis.

Series [3] relates to human apolipoprotein B protein. Briefly: Transgenic mice dosing study (Example 52): ELISA of human apolipoprotein B protein in liver. It counts as in vivo, human transgene in mouse. For orientation: ELISA stands for enzyme-linked immunosorbent assay.
For series [4], the system named is human apolipoprotein B mRNA. Briefly: Transgenic mice dosing study (Example 52): human apolipoprotein B mRNA in liver. In kind it is in vivo, human transgene in mouse. The note with it: for % Inhibition, human apolipoprotein B mRNA: liver, 12 weeks. As to the method: (§1) A long-term study of inhibition of human apolipoprotein B by ISIS 301012 in C57BL/6NTac-TgN(APOB100) mice (Taconic, Germantown, N.Y.) was conducted for a 3 month period. Mice were dosed intraperitoneally twice a week with 10 or 25 mg/kg ISIS 301012 (SEQ ID No: 247) for 12 weeks. Saline-injected animals served as controls. Each treatment group comprised 4 animals.
The study was terminated forty eight hours after the final injections in the eighth week of treatment, when animals were sacrificed and evaluated for target mRNA levels in liver, apolipoprotein B protein levels in liver and serum cholesterol and liver enzyme levels. In addition, the expression of endogenous mouse apolipoprotein B levels in liver was measured to evaluate any effects of ISIS 301012 on mouse apolipoprotein B mRNA expression.
Human and mouse apolipoprotein B mRNA levels in livers of animals treated for 12 weeks were measured by real-time PCR as described herein. Each result represents the average of data from 4 animals.

Series [5] concerns human apolipoprotein B protein. Briefly: Transgenic mice dosing study (Example 52): serum human apolipoprotein B protein by ELISA. In kind it is in vivo, human transgene in mouse. As to the method:
as §1
After 2, 4, 6, 8 and 12 weeks of treatment, serum samples were collected for the purpose of measuring human apolipoprotein B protein. Serum protein was quantitated using an ELISA kit specific for human apolipoprotein B (ALerCHEK Inc., Portland, Me.). The data are shown in Table 30 and each result represents the average of 4 animals. Data are normalized to saline-treated control animals.

The nature of series [6]: C57BL/6NTac-TgN(APOB100) transgenic mice (Example 47): liver enzyme, cholesterol, LDL-cholesterol and triglyceride levels. It counts as in vivo, mouse. Particulars: C57BL/6NTac-TgN(APOB100) mice, 25 mg/kg.
In the next series the test system is apolipoprotein B protein. Put plainly: Apolipoprotein B protein in primary Cynomolgous monkey hepatocytes, immunoblot. It counts as cell-based. As to the method: Additionally, protein was isolated from oligonucleotide-treated primary Cynomolgous monkey hepatocytes and subjected to immunoblot analysis to further assess apolipoprotein B protein expression. Immunoblotting was performed as described herein, using an antibody to human apolipoprotein B protein (US Biologicals, Swampscott, Mass.).

A short description of series [7]: ob/ob mice (Example 50): cholesterol, lipid, triglyceride, liver enzyme and glucose levels. Particulars: high fat high cholesterol diet, 50 mg/kg i.p. twice a week, six weeks. It counts as in vivo, mouse. The essentials: (§2)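 Ob/ob mice on 60% kcal fat diet with 0.15% cholesterol received 50 mg/kg oligonucleotide i.p. twice weekly for six weeks, with saline and control oligonucleotides.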

Another series deals with apolipoprotein B mRNA. Briefly: ob/ob mice (Example 50): apolipoprotein B mRNA levels in liver. In kind it is in vivo, mouse. Particulars: high fat high cholesterol diet, 50 mg/kg i.p. twice a week, six weeks. In short, it runs like this: as §2
Another series deals with PTEN. Put plainly: ob/ob mice (Example 50): PTEN levels. It counts as in vivo, mouse. Particulars: high fat high cholesterol diet, 50 mg/kg i.p. twice a week, six weeks. As to the method:
Ob/ob mice receiving a high fat, high cholesterol diet (60% kcal fat supplemented with 0.15% cholesterol) were treated with one of several oligonucleotides to evaluate their effect on apolipoprotein B-related phenotypic endpoints in ob/ob mice. After overnight fasting, mice from each group were dosed intraperitoneally twice a week with 50 mg/kg of ISIS 147483 (SEQ ID NO: 79), or 147764 (SEQ ID NO: 109), or the controls ISIS 116847 (SEQ ID NO: 857), or 141923 (SEQ ID NO: 858), or saline for six weeks. At study termination and forty eight hours after the final injections, animals were sacrificed and evaluated for target mRNA levels in liver, cholesterol and triglyceride levels, liver enzyme levels, serum glucose levels, and PTEN levels.

In the oligonucleotide strings, read from the 5' end, every base follows the letter of its sugar. An asterisk marks phosphorothioate; unmarked linkages are phosphodiester. Other units and linkages are bracketed, terminal groups are in braces. A string of capitals states the bases alone. e = 2'-O-(2-methoxyethyl) (MOE); [5mC] = 5-methylcytosine; d = 2'-deoxy (DNA)

With “GTCCCTGAAGATGTCAATGC (2'-MOE gapmer, further chemistry not given here) [ISIS 147764]”, the “mRNA expression of lipid metabolism genes (hepatic lipase, fatty acid synthase, ABCD2, FABP2, stearol CoA desaturase-1, HMG CoA reductase), real-time PCR” value in [1] is listed as “reduction in mRNA expression”. Also, in series [1] (10, 25 or 50 mg/kg i.p. twice weekly, 6 weeks), the “liver gene expression profile (microarray)” value was “drives the gene expression profile in high fat fed mice to the profile observed in lean mice”.
For the substance “ISIS 301012: SEQ ID NO: 247, antisense oligonucleotide targeted to human apolipoprotein B (antisense GCCTCAGTCTGCTTCGCACC; chemistry not given here)”, the “expression of human apolipoprotein B, B-100 and B-48 forms, in liver (immunoblot)” value in series [2] was “reduction”. Further, the “human apolipoprotein B protein in serum, B-100 and B-48 forms (immunoblot)” value in series [2] (2, 4, 6 and 12 weeks of treatment) was “lowered”. The “reduction in human apolipoprotein B protein in liver (ELISA)” value is reported as 80% in series [3] (10 mg/kg) and 82% in series [3] (20 mg/kg (so in the source)). The “reduction of human apolipoprotein B mRNA in liver” value in series [4] (12 weeks of treatment) is not above 75%. Also, the “% Inhibition, human apolipoprotein B mRNA” value in series [4] (10 mg/kg i.p. twice a week) is given as 65%; in series [4] (25 mg/kg i.p. twice a week), 75%. The “% Reduction in human apolipoprotein B protein in serum” value in series [5] (10 mg/kg i.p. twice a week, 2 weeks) is on record as 76%; in series [5] (10 mg/kg i.p. twice a week, 4 weeks), 78%; in series [5] (10 mg/kg i.p. twice a week, 6 weeks) it was 73%; in series [5] (10 mg/kg i.p. twice a week, 8 weeks), 42%; in series [5] (10 mg/kg i.p. twice a week, 12 weeks), 85%; in series [5] (25 mg/kg i.p. twice a week, 2 weeks), 80%. For the same substance, the “% Reduction in human apolipoprotein B protein in serum” value in [5] (25 mg/kg i.p. twice a week, 4 weeks) is given as 87%; in series [5] (25 mg/kg i.p. twice a week, 6 weeks), 86%; in series [5] (25 mg/kg i.p. twice a week, 8 weeks), 47%; in series [5] (25 mg/kg i.p. twice a week, 12 weeks), 79%. Further, the “lowering of human apolipoprotein B protein in serum (ELISA)” value in [5] (10 or 25 mg/kg i.p. twice a week, 2, 4, 6 or 12 weeks) is recorded as “approximately 80%”. Besides, the LDL-cholesterol levels in [6] (2 weeks of treatment) came to 22 mg/dL; in series [6] (4 weeks of treatment) it was 17 mg/dL. In addition, the “apolipoprotein B expression (immunoblot)” value with apolipoprotein B protein is recorded as “substantial reduction”.
Regarding “147764 (eG*eT*e[5mC]*e[5mC]*e[5mC]*dT*dG*dA*dA*dG*dA*dT*dG*dT*d[5mC]*eA*eA*eT*eG*e[5mC]) [compound 147764]”, in series [7], the Glucose is recorded as 209.2 mg/dL, the “Lipoproteins CHOL” value worked out at 286.3 mg/dL, the “Lipoproteins TRIG” value came out at 101.2 mg/dL and the “Liver Enzymes ALT” value amounted to 835.0 IU/L. Also, in [7], the “Liver Enzymes AST” value was 406.5 IU/L; the “glucose, cholesterol, and triglyceride levels” value is recorded as “able to lower”. The “apolipoprotein B mRNA levels” value with apolipoprotein B mRNA is “able to lower”. For the same substance, the “mRNA % control ApoB” value in the series on apolipoprotein B mRNA (liver) is on record as 43.1 % control. In addition, in the series on PTEN, the “mRNA % control PTEN” value is 115.3 % control.

Source of the values: US7803930B2, “Antisense modulation of apolipoprotein B-expression” (Isis Pharmaceuticals, Inc., priority 2002, dated 2010).
